The record followed here is patent US10207011B2, “Methods, systems, and devices for an invertebrate model of traumatic brain injury” (WISCONSIN ALUMNI RESEARCH FOUNDATION, priority 2013, dated 2019).

The test system of this assay is w^1118 flies. As to the kind of experiment: Mortality after standard TBI protocol in aspirin-fed flies. It is filed as in vivo, Drosophila. To be noted: 0-3-day old w^1118 flies cultured four days on food with 0.4 ml aspirin (200 mg/ml in DMSO) before standard TBI protocol; FIG. 5. An excerpt: Based on the data described in Example 2, we designed a standard TBI protocol for administering controlled impacts to generate primary injuries. The standard TBI protocol consisted of four impacts with five min recovery intervals between impacts. Reproducibility and rapidity were the driving forces behind the choice of protocol parameters. […] As a proof of concept for identifying an agent that could reduce the severity of an impact-associated phenotype, e.g., lethality, we tested whether, the non-steroidal anti-inflammatory drug, aspirin, affects TBI outcomes. Flies were treated with aspirin by feeding and then subjected to the standard TBI protocol. 0.4 ml of aspirin (200 mg/ml in DMSO) or DMSO only was added to vials with food and allowed to absorb into the food for two hours. 0-3-day old w^1118 flies, with an approximately equal number of male and female flies, were cultured on the food for four days. Flies were then left untreated or subjected to the standard TBI protocol. […] Thus, aspirin pre-treatment raises the primary injury threshold.

`CC(=O)Oc1ccccc1C(=O)O` [aspirin]: the “mortality 24 hours after a controlled impact, relative to DMSO-treated flies” value is “lower mortality than the DMSO-treated flies”.
